In the assay the target is T1, MST1 (Homo sapiens, UniProt Q13043).
T1 construct: purchased Carna Biosciences
T1 sequence (Q13043 1-487): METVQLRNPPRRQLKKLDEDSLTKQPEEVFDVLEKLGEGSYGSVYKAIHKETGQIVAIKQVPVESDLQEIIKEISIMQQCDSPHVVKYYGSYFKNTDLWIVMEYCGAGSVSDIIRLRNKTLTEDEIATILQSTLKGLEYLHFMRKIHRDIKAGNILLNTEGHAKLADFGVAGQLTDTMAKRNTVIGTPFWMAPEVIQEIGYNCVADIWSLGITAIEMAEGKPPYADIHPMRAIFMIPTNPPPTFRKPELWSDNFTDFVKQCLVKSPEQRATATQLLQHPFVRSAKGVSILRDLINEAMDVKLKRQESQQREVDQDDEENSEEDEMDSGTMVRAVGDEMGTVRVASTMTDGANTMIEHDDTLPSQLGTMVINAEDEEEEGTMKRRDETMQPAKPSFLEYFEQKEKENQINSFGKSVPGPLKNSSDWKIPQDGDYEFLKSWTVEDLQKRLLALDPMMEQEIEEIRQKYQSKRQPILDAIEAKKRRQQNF
Kind of assay: cell-free kinase assay. Type of assay: biochemical. An excerpt:
We investigated the potency and selectivity of BI 10N against 56 kinases using a cell-free assay (Table 8A).
The selectivity of this inhibitor was investigated by testing the potency of the inhibitor at two concentrations with 53 kinases by Carna Biosciences (MA) (Table 2).

For the compound `C[C@]12O[C@H](C[C@]1(O)C(=O)O)n1c3ccccc3c3c4c(c5c6ccccc6n2c5c31)CNC4=O` [K252b], half-maximal inhibition (ATP concentration at approximately the Km for ATP) (IC50) required 3.43 nM and the IC50 (commonly the concentration that inhibits the measured activity by half) (Table 2, by Carna Biosciences) stood at 3.43 nM.

The record behind these values is patent US9649313B2, “Use of ITK inhibitors for the treatment of cancer” (The University of North Carolina at Chapel Hill, priority 2012, dated 2017).
